In a melting point compilation (Tetko et al.; mined from patent text by program, amines drawn as free bases though some values may be those of a salt):

Compound | melting point [°C]
CC(C)SN1N=C(c2cccc([N+](=O)[O-])c2)C(SC(C)C)(SC(C)C)C1=O | 73 to 74
CCON=C1CN(c2nc3c(cc2F)c(=O)c(C(=O)O)cn3C2CC2)CC12CN(C(=O)OC(C)(C)C)C2 | 261 to 262
CCCc1c(OCCCOc2ccc(CC(=O)OC)cc2Br)ccc(C(C)=O)c1O | 91 to 92
CC(C)(CONCc1ccccc1Cl)C(=O)O | 78 to 80
CCCCC(Cc1cc(C(C)(C)C)c(O)c(C(C)(C)C)c1)(C(=O)OC1CC(C)(C)N(OC)C(C)(C)C1)C(=O)OC1CC(C)(C)N(OC)C(C)(C)C1 | 111 to 113
CSc1nn2c(N)cc(C)nc2c1S(=O)(=O)c1ccc(C)cc1 | > 230
CC(=O)Nc1cc(OS(=O)(=O)c2ccc(C)cc2)nc(=N)n1OC(C)=O | 196 to 200
O=C1Cc2cc3c(cc2C(c2ccco2)=NN1)OCO3 | 234 to 236
CCCCCCCCCCCCCCCCCCSc1ccc(O)cc1 | 95
O=C(OCCCCCCCCCCCCCCCCOc1ccc(-c2cccc(F)c2F)cc1)C(CCCCCCO)CCCCCCO | 45.2 to 48.8
CCOP(=O)(CC(Nc1cccnc1)c1cc(OC)c(O)c(OC)c1)OCC (stereo not drawn) | 164 to 166
Cc1coc(Cc2ccc([N+](=O)[O-])cc2)n1 | 67 to 68
CCCCCCCC(CCCCCCCCC(CCCCCCC)NC(C)=O)NC(C)=O (stereo not drawn) | 158 to 162
CC(=O)NCc1cccc(C#N)c1 | 94 to 96
CCCc1cc(=O)oc2cc(O)cc(O)c12 | 227 to 229
CCN1C(=O)CN(c2ccccc2)C1=S | 122
Cn1c(=O)c(=O)[nH]c2ccc3c(c21)CCCN3 | > 285
O=C(Nc1cc(Cl)cc(Cl)c1)c1cccc(Cl)c1O | 255 to 256
CCCCc1nc(CCC)n[nH]1 | 48.5 to 50
Clc1ccc(C=Cc2nc3c(s2)NCCCC3)cc1 | 188 to 189
CN1C(=O)COc2ccc(C3=NNC(=O)CC3)cc21 | 247 to 248
O=S(=O)(F)c1cc(S(=O)(=O)F)cc(S(=O)(=O)F)c1 | 166 to 168
CCOC(=O)c1cn2c(C)nnc2cc1Nc1ccc(I)cc1F | 201 to 204
O=C(NC(=S)Nc1cc(Cl)cc(C(F)(F)F)c1Cl)c1c(F)cccc1F | 136 to 141

Compound | melting point [°C]
COC(=O)c1cc2c(cc1[N+](=O)[O-])OCCO2 | 115 to 118
O=C(O)c1ccc(C(=O)c2cccnc2)cc1 | 266 to 267
CCCCC(CC(=O)O)C(=O)O (stereo not drawn) | 82 to 83
COc1cc(N2C(=O)N(C)CC2O)c(F)cc1Cl (stereo not drawn) | 138 to 140
Nc1ncnc2c1ncn2Cc1nc2ccc(Cl)cc2c(=O)n1-c1ccccc1Cl | 294 to 295
CCC(=O)c1c(O)c(CNC(C)=O)cc2c1CCCC2 | 136 to 140
CC(C)Nn1c(CO)nc2c(N)nc3cccnc3c21 | 242 to 243
CC(C)n1cnc2c(NCc3cccnc3)nc(F)nc21 | 131 to 133
CC(=O)N1CCC(NC(=O)Nc2ccc(C(F)(F)F)cc2)CC1 | 240 to 248
CC1C(Cl)(Cl)C1(C)c1ccc(O)cc1 (stereo not drawn) | 79 to 82
Fc1ccc(C#Cc2ccc(F)cc2)cc1 | 95 to 96
COC(=O)C1Cc2sc(N)c(C(=O)c3ccccc3Cl)c2C1 (stereo not drawn) | 120 to 125
CC(C)NC(=O)c1n[nH]cc1NC(=O)c1ccccn1 | 254 to 255
CON(C)C(=O)Cc1ccc([N+](=O)[O-])cc1 | 75 to 75.5
CC(C)(C)OC(=O)CN1CCN[C@@H](Cc2ccc(OC(C)(C)C)cc2)C1=O | 124 to 126
CCCCCCCCCCCCOc1ccc(C(=O)O)o1 | 122 to 123
COc1cc2cc(C(=O)C(C)CC#N)sc2cc1OC (stereo not drawn) | 148 to 150
O=C(OCc1ccccc1)c1ncn2c1[C@@H]1CCN1C(=O)c1c(Cl)cccc1-2 | 180 to 182
CCOC(=O)NC1(c2ccccc2Cl)CCCCC1=O (stereo not drawn) | 112 to 114
CCCn1c(=O)c2c(nc(/C=C/c3ccc4c(c3)OCO4)n2C)n(CCC)c1=O | 152 to 155
Cc1ccc(C)n1-c1ccc(CC#N)cc1 | 112 to 113
CC(C)C(NC(=O)OC(C)(C)C)C(=O)NC(C(=O)OCC1OC(n2cc(C=CBr)c(=O)[nH]c2=O)CC1N=[N+]=[N-])C(C)C (stereo not drawn) | 95 to 97
CCOC(=O)c1sc(-c2ccc(C#N)cc2)nc1CBr | 156
Cc1cc(CCCCc2cc(C)c(O)c(C(C)(C)C)c2)cc(C(C)(C)C)c1O | 106 to 107

The next lines start with the values.

melting point [°C] | Compound
192 to 195 | Cc1nnc2cnc(-c3ccccc3)cn12
136 to 137 | COc1cc(CCC(=O)O)ccc1OCCCc1cn(-c2ccc(C(F)(F)F)cn2)nc1C
112 to 114 | O=S(=O)(c1ccccc1)c1ccc2c(c1)O[C@H](CO)CO2
206 to 209 | COc1ccc(C(=O)c2ccccc2)c(O)c1Cc1cc(C)cc(-n2nc3ccccc3n2)c1O
133 to 135 | OCCN(c1ccncc1F)n1ccc2ccccc21
163 to 166 | CC1Oc2c(Cc3ccccc3)cc(C=O)cc2NC1=O (stereo not drawn)
185 to 187 | COc1ccc(C(=O)Nc2ccccc2)cc1NCc1ccc2c(c1)OCO2
131 to 134 | Cn1nc(CS(C)(=O)=O)nc1NCCCOc1ccc(CN2CCCCC2)cc1
49 | OC(CCc1cccnc1)CSc1ccc(C2CCCCC2)cc1 (stereo not drawn)
155 to 156 | CC(C)(C)c1cc(CCc2ccc(Cl)cc2NC(=O)NC2CCN(Cc3ccccc3)CC2)cc(C(C)(C)C)c1O
311 to 313 | COc1ccc(C(=O)Nc2ccc(-c3ncc(-c4ccc(NC(=O)C5CCCCCC5)cc4)[nH]3)cc2)cc1
233 to 234 | O=C(NCc1ccccc1)c1cc([N+](=O)[O-])ccc1N[C@H]1CC[C@H](O)CC1
182 to 184 | Nc1ncnc2c1c(CCCO)nn2Cc1oc2ccccc2c(=O)c1-c1ccccc1
166 | O=C(O)Cc1cccc(NC(=O)NCC(=O)N2[C@@H](c3cccc(O)c3)CC[C@H]2c2ccccc2)c1 (racemic)
170 to 172 | CN(C)c1ncc(-c2cccc(-n3cnc4cc(-c5ccco5)ccc43)c2)cn1
131 to 134 | CC(C)(C)C(=O)Oc1ccc(-c2nnn(Cc3ccccc3)n2)cc1
92 to 94 | COc1ccc2c(c1)c(Cc1cc(=O)n(-c3ccc(C(F)(F)F)cc3)[nH]1)c(C)n2C(=O)c1ccc(C#N)cc1
185 to 187 | CSc1ccc(C(=O)NCc2ccc3c(c2)C(=O)N(C2CCC(=O)NC2=O)C3=O)nc1 (stereo not drawn)
94 to 96 | CC(=O)Nc1c(C)c(C)c2c(c1C)CC(C)(CN1CCC(c3ccccc3)CC1)O2 (stereo not drawn)
89 to 91 | COc1cc(CN2CCCC2)ccc1OCC(=O)Nc1ccc(-c2ccc(Cl)cc2)cc1
> 300 | O=Cc1ccc2c(c1)C1(c3ccccc3-2)c2ccccc2-c2ccc(C=O)cc21
156 to 157 | CC(C)(C)OC(=O)N[C@H](Cc1ccc(CC(F)(F)C(F)(F)F)cc1)[C@@H](O)c1cccc(Cl)c1 (racemic)
76 to 78 | CCc1nc(/C=C\c2cn(-c3ccccc3)nc2OCc2ccc(OCc3nc(N4CCOCC4)sc3C)c(OC)c2)cs1
139 | Nc1ccc(C23CC(C2)C(=O)N(C2CCCCC2)C3=O)cc1
185 to 189 | Fc1cc(Cc2ccnc3c2Cc2ccccc2O3)ccn1

melting point [°C] | Compound
150 | COCCN1CCn2c1nc(C(=O)NCc1ccc(F)cc1)c(OCc1ccccc1)c2=O
160 to 165 | c1cnc2nc(-c3nccs3)ccc2c1
146 to 148 | Cc1nc(-c2cc3c(OC[C@@H](O)CN4CCC(c5ccc6ccccc6c5)CC4)cccc3o2)no1
165 to 167 | Cc1ccc(S(=O)(=O)n2ccnc2C(O)(c2ccccc2)c2ccccc2Cl)cc1 (stereo not drawn)
200 | CCc1nc2c(o1)C(=O)C=C(Nc1ccccc1)C2=O
78 to 88 | CC(=O)Nc1cnc(-c2ccc(CC(C)N3CC(c4cccc(Cl)c4)OC3=O)cc2)o1 (stereo not drawn)
143 to 155 | CC(C)(C)[Si](C)(C)OC[C@H]1OC[C@@H](n2cnc3cc(Cl)c(Cl)cc32)C[C@@H]1O
170 | O=C(c1nc(NNNc2ccccc2)nc(C(=O)c2ccccc2O)n1)c1ccccc1O
240 to 243 | Nc1ccc2c(c1N)Cc1ccccc1-2
214 | O=C(Nc1cccc2c1C(=O)N(C1CCN(c3ccncc3)CC1)C2=O)c1ccc(Cl)s1
91 to 93 | O=C(O)Cc1cccc(Sc2ccccc2Cl)c1O
75 to 79 | CCOC(=O)C1=C(C)NC(C)=C(C(=O)OCCN2CCN(C(c3ccccc3)c3ccccc3)CC2)C1c1ccc(Cl)cc1 (stereo not drawn)
135 to 137 | Cc1cccc(CC(Nc2ccccc2)C(=O)NC(C#N)COCc2cccc(C(=O)O)c2)c1 (stereo not drawn)
93 to 96 | CCC(C)(C)c1ccc(OCCCCc2c(O)c(N)c3ccccc3c2C(N)=O)c(C(C)(C)CC)c1
204 | CCOC(=O)Nc1nn(C)c2cc(OCc3ccccc3)ccc12
194 to 195 | CCOc1ccccc1CNC(=O)[C@@H]1CCCN(c2cccc3c2C(=O)N(Cc2ccncc2)C3=O)C1
111 to 113 | O=C1N(CCCC2CC2)c2ccccc2C12COc1cc3c(cc12)OCO3 (stereo not drawn)
149 to 152 | COc1cc(/C=C2/C(C)=C(CC(=O)O)c3cc(F)ccc32)cc(OC)c1OC
140 to 144 | CC(C(=O)O)c1cccc2c(-c3ccccc3)onc12 (stereo not drawn)
206 to 207 | CC(=O)Oc1c2c(c3ccccc3c1OC(C)=O)Nc1ccccc1S2
295 to 296 | O=C1c2cc(Cl)ccc2-n2c1nc1ccccc1c2=O
209 to 212 | O=C(O)[C@@]1(O)C[C@@H](O)[C@H](O)C2=C1CC(Cc1ccccc1)(Cc1ccccc1)S2
> 280 | CC(C)(C)OC(=O)N1CCC(C2=C(C#N)C(c3ccccc3Cl)c3c[nH]nc3N2)CC1 (stereo not drawn)
254 to 256 | Cc1ccn2c(C)c(-c3ccc4c(c3)NC(=O)C(C)O4)nc2c1 (stereo not drawn)
156 | CN(N)c1nc(-c2ccccc2)c2cc(Cl)ccc2n1
